The source of these data is patent publication US8410310B2, “Trypsin-like serine protease inhibitors, and their preparation and use” (The Medicines Company (Leipzig) GmbH, priority 2006, dated 2013).

The conditions of data set [1]: cited from earlier work.
In a further data set the target is trypsin. Conditions: background; cited from earlier work.
For another data set, the target named is plasmin (Homo sapiens, UniProt P00747). Kind of data set: Inhibition constants against purified human serine proteases: plasmin. Type of data set: biochemical. On the set-up: purchased Calbiochem. To be noted: 50 mM Tris-HCl pH 8.0, 154 mM NaCl, Chromozyme PL. From the text:
(§1) Aprotinin and tranexamic acid were purchased from SIGMA (Schnelldorf, Germany). Human factor Xa, factor XIa, factor XIIa, thrombin, and plasma kallikrein were purchased from Enzyme Research Laboratories, and human plasmin from Chromogenix (both via Haemochrom, Essen, Germany). Various synthetic peptide chromogenic substrates used for determination of inhibition constants were obtained from Pentapharm (Basel, Switzerland), Roche (Mannheim, Germany), and Chromogenix: Chromozyme PL for plasmin, S2302 for plasma kallikrein, Pefachrome FXa for factor Xa, Chromozym XII for FXIIa, Pefachrom tPA for thrombin, and Pefachrome PCa for factor XIa. […]
(§2) Inhibition of purified human serine proteases by Compound No. 3 and aprotinin was studied using the established methods described herein in Example 3 (i.e., Stürzebecher et al., 1997). […] Steady-state velocities of substrate conversion were obtained from progress curves generated by continuous monitoring of the absorbance at 405 nm with a microplate reader (Multiskan Ascent, Thermo Electron Corporation, Dreieich, Germany). […] Inhibition constants (Ki) were calculated from non-linear fits of individual data sets to the Michaelis-Menten equation for competitive inhibitors using an enzyme kinetic analysis software (SIGMA Plot® 9.0 Enzyme Kinetics Module, SSI, San Jose, Calif.). […]

Data set [2] deals with T1, plasma kallikrein (Homo sapiens, UniProt P03952). Description: Inhibition constants against purified human serine proteases: plasma kallikrein. The format is biochemical. Set-up: purchased Enzyme Research Lab. / Enzyme Research Laboratories.
Source text: as §1, §2

For the next data set, the target named is Thrombin (Homo sapiens, UniProt P00734). Kind of data set: Determination of inhibition constants for thrombin. The format is biochemical. The gist of the method: (§3)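 Chromogenic assays measured absorbance at 405 nm: zero-order reactions were stopped with acetic acid after 20 min, and pseudo-first-order rates were recorded kinetically at equilibrium. Ki was obtained by Dixon linear regression or by fitting to the competitive-inhibition rate equation, averaging at least two determinations.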

The test system of data set [3] is thrombin generation in platelet-rich human plasma. Description: Thrombin generation assay (Technothrombin TGA). Type of data set: cell-based. To be noted: 100 to 1000 nM, intrinsic and extrinsic activation. On the procedure:
Venous blood was withdrawn from the antecubital vein from healthy volunteers after written informed consent in accordance with local and federal guidelines with approval of the local review board (Ethikkommission, Klinikum Charité, Sauerbruchweg 5, 10117 Berlin). The blood was mixed with 0.11 mol/L sodium citrate (1:10). For ROTEM® analysis, whole citrated blood was used within 8 h after collection. Platelet-rich plasma (PRP) was prepared from citrated blood by centrifugation at 330×g for 10 min at room temperature, platelet-poor plasma (PPP) was collected following centrifugation at 1220×g for 12 min. The PRP was then adjusted to 3×10^8 platelets per mL using the autologous PPP. PRP was maintained at room temperature for less than 4 h before analysis. The remaining PPP was subjected to a high-speed centrifugation at 40,000×g for 30 min at 4° C. to remove any particulate material and was then stored at −70° C. until use.
The impact of Compound No. 3 and aprotinin on thrombin generation was studied in PRP using the commercially available Technothrombin® TGA kit (Technoclone, Vienna, Austria). This method allows assessment of the dynamics of thrombin generation, i.e. initiation, propagation, and inactivation phases, including the contribution of platelet function to the clotting process (Hemker et al., Pathophysiol. Haemost. Thromb. 33: 4-15, 2003). PRP was spiked with test compounds at different concentrations and pre-warmed to 37° C. in a black 96-well flat-bottom plate (Nunc, Wiesbaden, Germany). Thrombin generation was then initiated by adding a mixture of activator and fluorogenic thrombin substrate. […] Starting immediately after addition of reagents, fluorescence was recorded every 60 s for 120 min using the BMG POLARstar microplate reader (BMG Labtech, Offenburg, Germany) set at 390 nm excitation and 460 nm emission maintaining a temperature of 37° C. […] A typical thrombin generation curve is generated by plotting the first derivative (dF/dt) of the original fluorescence versus time curve and comparing it to a standard run containing known amounts of thrombin in buffer. […]

The next data set deals with Xa (Homo sapiens, UniProt P00742). Description: Determination of inhibition constants for Xa. Type of data set: biochemical. The gist of the method:
as §3

Data set [4] can be described thus: Terminal half-life in rats. Conditions: rat, in vivo.
Data set [5] can be described thus: Terminal half-life in dogs. To be noted: dog, in vivo.
A further data set deals with T2, Human factor XIa (Homo sapiens, UniProt P03951).
T2 construct: Human factor Xa, factor XIa, factor XIIa, thrombin, and plasma kallikrein were purchased; purchased Enzyme Research Laboratories (via Haemochrom, Essen)
Kind of data set: Inhibition constants against purified human serine proteases: FXIa. Type of data set: biochemical.
Source text: as §1, §2

Data set [6] deals with T1, plasma kallikrein. Description: Determination of inhibition constants for PK. The format is biochemical. On the set-up: purchased Enzyme Research Lab. / Enzyme Research Laboratories. To be noted: 25° C., substrate S2302, pH 8.0; read-out: PK [Ki]. The method, boiled down: as §3

Several values for one entry are separate records, joined by “and”; a condition that tells them apart may be missing. Equal entries are not always repeated. Where two headings read alike, the source gives them in different places.

T1 sequence (P03952 391-638 limits assumed): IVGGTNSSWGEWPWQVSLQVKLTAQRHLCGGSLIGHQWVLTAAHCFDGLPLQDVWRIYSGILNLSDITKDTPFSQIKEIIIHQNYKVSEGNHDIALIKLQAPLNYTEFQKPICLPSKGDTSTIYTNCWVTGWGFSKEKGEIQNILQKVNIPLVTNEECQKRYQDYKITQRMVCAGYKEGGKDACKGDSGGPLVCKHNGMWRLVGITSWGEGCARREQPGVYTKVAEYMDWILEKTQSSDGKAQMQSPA
T1 sequence (P03952 20-390 partner limits assumed): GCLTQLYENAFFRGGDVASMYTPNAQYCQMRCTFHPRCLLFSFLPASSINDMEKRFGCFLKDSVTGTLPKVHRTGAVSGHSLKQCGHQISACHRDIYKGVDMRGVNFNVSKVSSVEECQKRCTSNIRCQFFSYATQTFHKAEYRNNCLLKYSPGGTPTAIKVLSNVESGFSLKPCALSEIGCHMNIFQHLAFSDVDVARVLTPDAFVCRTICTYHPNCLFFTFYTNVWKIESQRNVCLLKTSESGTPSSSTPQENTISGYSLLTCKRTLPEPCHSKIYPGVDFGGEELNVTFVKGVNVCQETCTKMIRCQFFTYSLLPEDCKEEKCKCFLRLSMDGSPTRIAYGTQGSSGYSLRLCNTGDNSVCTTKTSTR
T2 sequence (P03951 388-625 limits assumed): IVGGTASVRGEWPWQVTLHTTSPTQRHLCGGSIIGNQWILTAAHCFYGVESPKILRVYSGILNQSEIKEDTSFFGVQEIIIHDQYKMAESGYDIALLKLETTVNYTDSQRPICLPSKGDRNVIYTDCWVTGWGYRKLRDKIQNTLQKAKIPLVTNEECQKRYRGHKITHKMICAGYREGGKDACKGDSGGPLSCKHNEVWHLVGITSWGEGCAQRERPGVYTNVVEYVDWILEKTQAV
T2 sequence (P03951 19-387 partner limits assumed): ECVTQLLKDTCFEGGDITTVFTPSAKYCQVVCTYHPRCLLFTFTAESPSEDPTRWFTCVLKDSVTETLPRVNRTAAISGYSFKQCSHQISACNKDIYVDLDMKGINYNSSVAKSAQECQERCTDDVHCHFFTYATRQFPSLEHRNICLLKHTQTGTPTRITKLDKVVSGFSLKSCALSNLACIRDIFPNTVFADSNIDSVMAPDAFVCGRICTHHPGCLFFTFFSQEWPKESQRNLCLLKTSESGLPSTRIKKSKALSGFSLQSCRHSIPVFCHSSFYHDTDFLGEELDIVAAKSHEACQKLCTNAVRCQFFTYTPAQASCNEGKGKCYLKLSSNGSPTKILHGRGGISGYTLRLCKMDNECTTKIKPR
Chain of plasmin (P00747 581-810 limits assumed): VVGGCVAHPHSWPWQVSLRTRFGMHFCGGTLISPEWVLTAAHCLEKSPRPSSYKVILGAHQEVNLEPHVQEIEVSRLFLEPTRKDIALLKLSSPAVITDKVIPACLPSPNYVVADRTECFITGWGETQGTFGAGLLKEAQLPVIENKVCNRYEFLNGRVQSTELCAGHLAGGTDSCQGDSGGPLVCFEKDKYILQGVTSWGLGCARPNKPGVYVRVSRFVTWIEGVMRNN
Chain of plasmin (P00747 97-580 partner limits assumed): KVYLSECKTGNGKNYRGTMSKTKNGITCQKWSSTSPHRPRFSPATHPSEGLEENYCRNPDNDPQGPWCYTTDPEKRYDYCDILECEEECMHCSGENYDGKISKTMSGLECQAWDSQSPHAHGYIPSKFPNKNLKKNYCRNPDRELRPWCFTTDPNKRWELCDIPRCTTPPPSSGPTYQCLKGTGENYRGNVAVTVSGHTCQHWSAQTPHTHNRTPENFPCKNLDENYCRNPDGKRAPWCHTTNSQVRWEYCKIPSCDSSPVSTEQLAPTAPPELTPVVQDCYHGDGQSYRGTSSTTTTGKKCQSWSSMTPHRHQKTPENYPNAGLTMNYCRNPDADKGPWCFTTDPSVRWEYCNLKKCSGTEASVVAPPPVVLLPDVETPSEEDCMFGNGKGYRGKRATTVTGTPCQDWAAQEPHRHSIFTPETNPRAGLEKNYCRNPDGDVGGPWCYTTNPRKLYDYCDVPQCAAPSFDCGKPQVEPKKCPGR
Chain of Xa (P00742 235-488 limits assumed): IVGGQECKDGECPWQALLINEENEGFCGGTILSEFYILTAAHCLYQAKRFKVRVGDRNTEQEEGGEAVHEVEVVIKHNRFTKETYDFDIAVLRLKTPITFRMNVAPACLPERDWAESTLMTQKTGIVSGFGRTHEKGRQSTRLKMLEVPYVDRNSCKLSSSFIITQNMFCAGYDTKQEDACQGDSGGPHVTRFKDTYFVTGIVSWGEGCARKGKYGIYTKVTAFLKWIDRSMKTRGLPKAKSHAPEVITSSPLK
Chain of Xa (P00742 41-179 limits assumed): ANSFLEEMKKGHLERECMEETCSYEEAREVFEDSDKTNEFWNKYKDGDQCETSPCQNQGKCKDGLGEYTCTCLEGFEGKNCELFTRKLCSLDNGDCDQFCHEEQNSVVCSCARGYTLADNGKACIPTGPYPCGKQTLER

Broadly, the Ki is a measure of affinity in units of concentration, obtained from inhibition or displacement. Consider aprotinin, for which the “risk of myocardial infarction and apoplectic stroke” value in data set [1] (by comparison with the control groups) is listed as “increased”. Besides, the “number of cases of kidney damage, making dialysis necessary” value in data set [1] (comparison with ε-aminocaproic acid or tranexamic acid (Mangano et al., 2006)) is “doubling”. Further, the “risk of an anaphylactic shock” value is recorded as less than 0.1% in [1] (first administration) and 4-5% in [1] (repeated administration within 200 days). Moreover, on trypsin, the Ki was 0.1 nM.

Usually half-life stands for the time needed for the level to fall by half in the phase considered. Low values mean rapid decline, high ones slow decline. In the case of `N=C(N)c1ccc(CNC(=O)[C@H](Cc2cccc(CN)c2)NC(=O)[C@@H](CCCc2ccccc2)NS(=O)(=O)Cc2cccc(C(=O)O)c2)cc1` [compound 3, 3-HOOC-Bzls-d-Ppg-Phe(3-Ame)-4-Amba×2 acetate], the Ki is 2.3 nM and 2.2 nM at plasmin; 0.019 ± 0.003 nM at plasma kallikrein [2] (50 mM Tris-HCl pH 8.0, 154 mM NaCl, S2302); more than 1000 nM at Thrombin; less than 100 nM at Xa; 18 ± 1 nM at Human factor XIa (50 mM Tris-HCl pH 8.0, 154 mM NaCl, Pefachrome PCa); less than 10 nM on plasma kallikrein [6]. The “stronger inhibition of plasma kallikrein than aprotinin” value at plasma kallikrein [2] (versus aprotinin) is recorded as 2000 fold. The endogenous thrombin potential result in [3] is “no impact”. In addition, in data set [3], the “onset of thrombin generation” value is given as “concentration-dependent delay”. The peak thrombin level result in data set [3] is recorded as “reduction”. Moreover, the half-life in [4] and in data set [5] was 20 min in each case. Further, the “stronger inhibition of FXIa than aprotinin” value at Human factor XIa (versus aprotinin) came out at 100 fold.
